# ChEMBL document CHEMBL6074662, “Antibacterial, Antibiofilm, and Anti-inflammatory Effects of a Novel Thrombin-Derived Peptide in Sepsis Models: Insights into Underlying Mechanisms” (J Med Chem, 2024)
# Active and inactive are the calls of the source. No cut-off for these calls is given here. Where a SMILES comes first, the peptide text is derived from it. Bridges are numbered along the chain shown (N, C = ends). [ ]: non-standard residue; d: D form. The star is where a group is joined. X1 = CC[C@H](C)CCCCC(=O)*; dDab = NCC[C@@H](N)C(=O)O; Dab = NCC[C@H](N)C(=O)O
# What was measured:
# [1] = test system: Acinetobacter baumannii; assay: Antibacterial activity against carbapenem-resistant Acinetobacter baumannii 1915 incubated for 24 hrs by CLSI based broth microdilution method; type: functional, organism-based
# [2] = test system: Acinetobacter baumannii; assay: Antibacterial activity against carbapenem-resistant Acinetobacter baumannii 1707 incubated for 24 hrs by CLSI based broth microdilution method; type: functional, organism-based
# [3] = test system: Lipopolysaccharide (LPS); assay: Disaggregation of FITC-labeled Escherichia coli 0111:B4 LPS assessed as increase in fluorescence intensity at higher concentration
# [4] = test system: Pseudomonas aeruginosa; assay: Inhibition of biofilm formation in multi-drug resistant Pseudomonas aeruginosa CCARM 2095 at 4 to 8 uM by crystal violet staining based analysis relative to control; type: functional; conditions: dose 4-8 µM
# [5] = test system: Pseudomonas aeruginosa; assay: Eradication of biofilm formation in multi-drug resistant Pseudomonas aeruginosa CCARM 2095 at 32 uM incubated for 12 hrs by CLSM analysis relative to control; type: functional
# [6] = test system: Pseudomonas aeruginosa; assay: Antibacterial activity against multi-drug resistant Pseudomonas aeruginosa CCARM 2095 incubated for 24 hrs by broth microdilution method; type: functional
# [7] = test system: Staphylococcus aureus; assay: Antibacterial activity against methicillin-resistant Staphylococcus aureus CCARM 3089 incubated for 24 hrs by broth microdilution method; type: functional
# [8] = test system: Escherichia coli; assay: Induction of resistance development in Escherichia coli KCTC 1682 assessed as fold increase in MIC at 0.5 times MIC measured after 30 passages relative to control; type: functional
# [9] = test system: Acinetobacter baumannii; assay: Antibacterial activity against multidrug-resistant Acinetobacter baumannii 329-53 incubated for 24 hrs by CLSI based broth microdilution method; type: functional
# [10] = test system: Enterococcus faecium; assay: Antibacterial activity against vancomycin-resistant Enterococcus faecium ATCC 51559 incubated for 24 hrs by CLSI based broth microdilution method; type: functional
# [11] = Hemolytic activity in sheep RBC incubated for 1 hr by absorbance based assay; type: toxicity, cell-based, Ovis aries; conditions: erythrocyte
# [12] = test system: Escherichia coli; assay: Induction of inner membrane permeabilization in Escherichia coli KCTC 1682 at MIC by PI staining based flow cytometry (reference value: 1.51 %); type: functional
# [13] = test system: Acinetobacter baumannii; assay: Antibacterial activity against multidrug-resistant Acinetobacter baumannii 329-97 incubated for 24 hrs by CLSI based broth microdilution method; type: functional
# [14] = test system: Acinetobacter baumannii; assay: Antibacterial activity against carbapenem-resistant Acinetobacter baumannii NMS 1707 incubated for 24 hrs by CLSI based broth microdilution method; type: functional
# [15] = test system: Acinetobacter baumannii; assay: Antibacterial activity against carbapenem-resistant Acinetobacter baumannii CCARM 12005 incubated for 24 hrs by CLSI based broth microdilution method; type: functional
# [16] = test system: Acinetobacter baumannii; assay: Antibacterial activity against carbapenem-resistant Acinetobacter baumannii NMS 1915 incubated for 24 hrs by CLSI based broth microdilution method; type: functional
structure (smiles),measurement,setting,value
C[C@@H](O)[C@H]1C(=O)N2C(C(=O)O)=C(SCCNC=N)C[C@H]12,Activity,[1],inactive
same,Activity,[2],inactive
CC(C)CCCCC(=O)N[C@@H](CCN)C(=O)N[C@H](C(=O)N[C@@H](CCN)C(=O)N[C@H]1CCNC(=O)[C@H]([C@@H](C)O)NC(=O)[C@H](CCN)NC(=O)[C@H](CCN)NC(=O)[C@H](CC(C)C)NC(=O)[C@@H](Cc2ccccc2)NC(=O)[C@@H](CCN)NC1=O)[C@@H](C)O.CC[C@H](C)CCCCC(=O)N[C@@H](CCN)C(=O)N[C@H](C(=O)N[C@@H](CCN)C(=O)N[C@H]1CCNC(=O)[C@H]([C@@H](C)O)NC(=O)[C@H](CCN)NC(=O)[C@H](CCN)NC(=O)[C@H](CC(C)C)NC(=O)[C@@H](Cc2ccccc2)NC(=O)[C@@H](CCN)NC1=O)[C@@H](C)O (X1-[Dab]T[Dab][Dab][dDab][dF]L[Dab][Dab]T; lactam 4-C),Activity,[3],inactive
CC[C@H](C)[C@H](NC(=O)[C@H](CCCCN)NC(=O)[C@H](CCC(=O)O)NC(=O)[C@H](CCCCN)NC(=O)[C@H](CO)NC(=O)[C@H](CCCCN)NC(=O)[C@H](CCCNC(=N)N)NC(=O)[C@H](Cc1ccccc1)NC(=O)[C@H](Cc1ccccc1)NC(=O)[C@H](CC(=O)O)NC(=O)CNC(=O)[C@H](CC(C)C)NC(=O)[C@@H](N)CC(C)C)C(=O)NCC(=O)N[C@@H](CCCCN)C(=O)N[C@@H](CCC(=O)O)C(=O)N[C@@H](Cc1ccccc1)C(=O)N[C@@H](CCCCN)C(=O)N[C@@H](CCCNC(=N)N)C(=O)N[C@H](C(=O)N[C@H](C(=O)N[C@@H](CCC(N)=O)C(=O)N[C@@H](CCCNC(=N)N)C(=O)N[C@H](C(=O)N[C@@H](CCCCN)C(=O)N[C@@H](CC(=O)O)C(=O)N[C@@H](Cc1ccccc1)C(=O)N[C@@H](CC(C)C)C(=O)N[C@@H](CCCNC(=N)N)C(=O)N[C@@H](CC(N)=O)C(=O)N[C@@H](CC(C)C)C(=O)N[C@H](C(=O)N1CCC[C@H]1C(=O)N[C@@H](CCCNC(=N)N)C(=O)N[C@H](C(=O)N[C@@H](CCC(=O)O)C(=O)N[C@@H](CO)C(=O)O)[C@@H](C)O)C(C)C)[C@@H](C)CC)C(C)C)[C@@H](C)CC [CATHELICIDIN],inhibition (INH),[4],>50%
same,Activity,[5],>50%
O=C(N[C@H](CO)[C@H](O)c1ccc([N+](=O)[O-])cc1)C(Cl)Cl [CHLORAMPHENICOL],MIC,[6],4100 µM
same,MIC,[7],1020 µM
O=C(O)c1cn(C2CC2)c2cc(N3CCNCC3)c(F)cc2c1=O [CIPROFLOXACIN],MIC,[6],1020 µM
same,fold change (FC),[8],8192
same,MIC,[7],1020 µM
CC[C@H](C)[C@H](NC(=O)CN)C(=O)NCC(=O)N[C@@H](C)C(=O)N[C@H](C(=O)N[C@@H](CC(C)C)C(=O)N[C@@H](CCCCN)C(=O)N[C@H](C(=O)N[C@@H](CC(C)C)C(=O)N[C@H](C(=O)N[C@H](C(=O)NCC(=O)N[C@@H](CC(C)C)C(=O)N1CCC[C@H]1C(=O)N[C@@H](C)C(=O)N[C@@H](CC(C)C)C(=O)N[C@H](C(=O)N[C@@H](CO)C(=O)N[C@@H](Cc1c[nH]c2ccccc12)C(=O)N[C@H](C(=O)N[C@@H](CCCCN)C(=O)N[C@@H](CCCNC(=N)N)C(=O)N[C@@H](CCCCN)C(=O)N[C@@H](CCCNC(=N)N)C(=O)N[C@@H](CCC(N)=O)C(=O)N[C@@H](CCC(N)=O)C(N)=O)[C@@H](C)CC)[C@@H](C)CC)[C@@H](C)O)[C@@H](C)O)C(C)C)C(C)C [MELITTIN],MIC,[9],2 µM
same,MIC,[10],2 µM
same,HC10,[11],2.2 µM
same,Activity,[12],~100%
same,MIC,[13],2 µM
same,MIC,[14],8 µM
same,MIC,[15],8 µM
same,MIC,[16],4 µM
